{"source": "patent US20240327334A1", "about": "“Covalent Inhibitors As Antiviral Agents” (Enanta Pharmaceuticals, Inc., priority 2022, published 2024)"}
{"biological_target": "SARS-CoV-2 Papain-like (PLpro) protease (Severe acute respiratory syndrome coronavirus 2, UniProt P0DTD1)", "experiment": "SARS-CoV-2 Papain-like (PLpro) protease biochemical enzyme inhibition assay (ubiquitin-fluorophore substrate, Ub-R110)", "conditions": "Ub-R110 substrate; run in duplicate; read-out: PLpro IC50", "units": {"IC50": "µM"}}
{"smiles": "Cn1ncc2cc(C3(NC(=O)c4ccccc4CNC(=O)C(=O)NCC#Cc4nccs4)CC3)ccc21", "note": "[Example 345]", "IC50": "< 0.1"}
{"smiles": "O=C(NCC#Cc1nccs1)C(=O)NCc1ccccc1C(=O)NC1(c2cnc3ccccc3c2)CC1", "note": "[Example 393]", "IC50": "< 0.1"}
{"smiles": "C#CCNC(=O)C(=O)NCc1ccccc1C(=O)NC1(c2cc(F)cc(-c3cnn(C4CC4)c3)c2F)CC1", "note": "[Example 311]", "IC50": "< 0.1"}
{"smiles": "Cc1nn(C)cc1-c1cc(C2(NC(=O)c3ccccc3CNC(=O)C(=O)NCC#N)CC2)ccc1F", "note": "[Example 236]", "IC50": "0.1 to 1"}
{"smiles": "N#Cc1cccc(NC(=O)/C=C/CNC(=O)C(=O)NCc2ccccc2C(=O)NC2(c3cccc4ccccc34)CC2)c1", "note": "[Example 574]", "IC50": "0.1 to 1"}
{"smiles": "N#CCNC(=O)C(=O)NCc1ccccc1C(=O)NC1(c2cccc(C(F)(F)F)c2Cl)CC1", "note": "[Example 370]", "IC50": "0.1 to 1"}
{"smiles": "C[C@@H](C#Cc1ncccc1Cl)NC(=O)C(=O)NCc1ccccc1C(=O)NC1(c2cc(F)cc(-c3cnn(C4CC4)c3)c2)CC1", "note": "[Example 264]", "IC50": "< 0.1"}
{"smiles": "N#CCNC(=O)C(=O)NCc1ccccc1C(=O)NC1(c2cc(F)cc(-c3cnn(C4CC4)c3)c2F)CC1", "note": "[Example 312]", "IC50": "< 0.1"}
{"smiles": "N#CCNC(=O)C(=O)NCc1ccccc1C(=O)NC1(c2cccc3ccccc23)CC1", "note": "[Example 25]", "IC50": "< 0.1"}
{"smiles": "CC(C)(O)c1cccc(-c2cc(C3(NC(=O)c4ccccc4CNC(=O)C(=O)NCC#N)CC3)c3ccccc3c2)n1", "note": "[Example 283]", "IC50": "< 0.1"}
{"smiles": "O=C(NCC#Cc1nccs1)C(=O)NCc1ccccc1C(=O)NC1(c2ccnc3ccccc23)CC1", "note": "[Example 392]", "IC50": "< 0.1"}
{"smiles": "C#CCNC(=O)C(=O)NCc1ccccc1C(=O)NC1(c2ccc(F)c(-c3cn(C)nc3C)c2)CC1", "note": "[Example 237]", "IC50": "< 0.1"}
{"smiles": "O=C(/C=C/CNC(=O)C(=O)NCc1ccccc1C(=O)NC1(c2cccc3ccccc23)CC1)NC1(C(F)(F)F)CC1", "note": "[Example 575]", "IC50": "0.1 to 1"}
{"smiles": "O=C(NCC#Cc1cncnc1)C(=O)NCc1ccccc1C(=O)NC1(c2ccc3ccccc3c2)CC1", "note": "[Example 166]", "IC50": "< 0.1"}
{"smiles": "N#CCNC(=O)C(=O)NCc1ccccc1C(=O)NC1(c2cc(Cl)cc(-c3cnn(C4CC4)c3)c2)CC1", "note": "[Example 454]", "IC50": "< 0.1"}
{"smiles": "CC(C)[C@@H](C#Cc1nccs1)NC(=O)C(=O)NCc1ccccc1C(=O)NC1(c2ccc3nn(C)cc3c2)CC1", "note": "[Example 97]", "IC50": "0.1 to 1"}
{"smiles": "CC(C)(O)CCc1cc(C2(NC(=O)c3ccccc3CNC(=O)C(=O)NCC#N)CC2)c2ccccc2c1", "note": "[Example 424]", "IC50": "< 0.1"}
{"smiles": "N#CN1CC[C@H]1CNC(=O)C(=O)NCc1ccccc1C(=O)NC1(c2cccc3ccccc23)CC1", "note": "[Example 500]", "IC50": "< 0.1"}
{"smiles": "C#CCNC(=O)C(=O)NCc1ccccc1C(=O)NC1(c2cc(-c3cnn(C4CC4)c3)ccc2Cl)CC1", "note": "[Example 384]", "IC50": "< 0.1"}
{"smiles": "Cc1nn(C)cc1-c1cc(F)cc(C2(NC(=O)c3ccccc3CNC(=O)C(=O)NCC#Cc3ncccc3Cl)CC2)c1", "note": "[Example 259]", "IC50": "< 0.1"}
{"smiles": "Cc1cccnc1C#CCNC(=O)C(=O)NCc1ccccc1C(=O)NC1(c2ccc3nn(C)cc3c2)CC1", "note": "[Example 271]", "IC50": "< 0.1"}
{"smiles": "C#CCNC(=O)C(=O)NCc1ccccc1C(=O)NC1(c2cc(C#C)cc(C(F)(F)F)c2)CC1", "note": "[Example 69]", "IC50": "< 0.1"}
{"smiles": "C[C@@H](C#Cc1c(F)cccc1C#N)NC(=O)C(=O)NCc1ccccc1C(=O)NC1(c2ccc3nn(C)cc3c2)CC1", "note": "[Example 100]", "IC50": "< 0.1"}
{"smiles": "N#CCNC(=O)C(=O)NCc1ccccc1C(=O)NC1(c2cc(Cl)cc(Br)c2)CC1", "note": "[Example 455]", "IC50": "0.1 to 1"}
{"smiles": "O=C(NC/C=C/C(=O)n1cccn1)C(=O)NCc1ccccc1C(=O)NC1(c2cccc3ccccc23)CC1", "note": "[Example 567]", "IC50": "0.1 to 1"}
{"smiles": "O=C(NCC#Cc1nccs1)C(=O)NCc1ccccc1C(=O)NC1(c2ccc3nc(C4CC4)ccc3c2)CC1", "note": "[Example 396]", "IC50": "< 0.1"}
{"smiles": "O=C(NCC#Cc1cnccn1)C(=O)NCc1ccccc1C(=O)NC1(c2ccc3ccccc3c2)CC1", "note": "[Example 172]", "IC50": "< 0.1"}
{"smiles": "N#CCNC(=O)C(=O)NCc1ccccc1C(=O)NC1(c2cccc(Br)c2)CC1", "note": "[Example 545]", "IC50": "0.1 to 1"}
{"smiles": "O=C(NCC#Cc1nccs1)C(=O)NCc1ccccc1C(=O)NC1(c2cc3ccccc3cn2)CC1", "note": "[Example 394]", "IC50": "< 0.1"}
{"smiles": "C#CCNC(=O)C(=O)NCc1ccccc1C(=O)NC1(c2cc(F)c(F)c(-c3cnn(C4CC4)c3)c2)CC1", "note": "[Example 242]", "IC50": "< 0.1"}
{"system": "SARS-CoV-2 replicon", "experiment": "microbe, parasite or virus in culture", "format": "cell-based", "conditions": "Severe acute respiratory syndrome coronavirus 2, Huh-7", "units": {"EC50": "µM"}}
{"smiles": "Cn1ncc2cc(C3(NC(=O)c4ccccc4CNC(=O)C(=O)NCC#Cc4nccs4)CC3)ccc21", "note": "[Example 345]", "EC50": "< 1"}
{"smiles": "O=C(NCC#Cc1nccs1)C(=O)NCc1ccccc1C(=O)NC1(c2cnc3ccccc3c2)CC1", "note": "[Example 393]", "EC50": "1 to 10"}
{"smiles": "C#CCNC(=O)C(=O)NCc1ccccc1C(=O)NC1(c2cc(F)cc(-c3cnn(C4CC4)c3)c2F)CC1", "note": "[Example 311]", "EC50": "< 1"}
{"smiles": "Cc1nn(C)cc1-c1cc(C2(NC(=O)c3ccccc3CNC(=O)C(=O)NCC#N)CC2)ccc1F", "note": "[Example 236]", "EC50": "> 10"}
{"smiles": "N#Cc1cccc(NC(=O)/C=C/CNC(=O)C(=O)NCc2ccccc2C(=O)NC2(c3cccc4ccccc34)CC2)c1", "note": "[Example 574]", "EC50": "1 to 10"}
{"smiles": "N#CCNC(=O)C(=O)NCc1ccccc1C(=O)NC1(c2cccc(C(F)(F)F)c2Cl)CC1", "note": "[Example 370]", "EC50": "1 to 10"}
{"smiles": "C[C@@H](C#Cc1ncccc1Cl)NC(=O)C(=O)NCc1ccccc1C(=O)NC1(c2cc(F)cc(-c3cnn(C4CC4)c3)c2)CC1", "note": "[Example 264]", "EC50": "< 1"}
{"smiles": "N#CCNC(=O)C(=O)NCc1ccccc1C(=O)NC1(c2cc(F)cc(-c3cnn(C4CC4)c3)c2F)CC1", "note": "[Example 312]", "EC50": "1 to 10"}
{"smiles": "N#CCNC(=O)C(=O)NCc1ccccc1C(=O)NC1(c2cccc3ccccc23)CC1", "note": "[Example 25]", "EC50": "< 1"}
{"smiles": "CC(C)(O)c1cccc(-c2cc(C3(NC(=O)c4ccccc4CNC(=O)C(=O)NCC#N)CC3)c3ccccc3c2)n1", "note": "[Example 283]", "EC50": "< 1"}
{"smiles": "O=C(NCC#Cc1nccs1)C(=O)NCc1ccccc1C(=O)NC1(c2ccnc3ccccc23)CC1", "note": "[Example 392]", "EC50": "1 to 10"}
{"smiles": "C#CCNC(=O)C(=O)NCc1ccccc1C(=O)NC1(c2ccc(F)c(-c3cn(C)nc3C)c2)CC1", "note": "[Example 237]", "EC50": "< 1"}
{"smiles": "O=C(/C=C/CNC(=O)C(=O)NCc1ccccc1C(=O)NC1(c2cccc3ccccc23)CC1)NC1(C(F)(F)F)CC1", "note": "[Example 575]", "EC50": "> 10"}
{"smiles": "O=C(NCC#Cc1cncnc1)C(=O)NCc1ccccc1C(=O)NC1(c2ccc3ccccc3c2)CC1", "note": "[Example 166]", "EC50": "< 1"}
{"smiles": "N#CCNC(=O)C(=O)NCc1ccccc1C(=O)NC1(c2cc(Cl)cc(-c3cnn(C4CC4)c3)c2)CC1", "note": "[Example 454]", "EC50": "1 to 10"}
{"smiles": "CC(C)[C@@H](C#Cc1nccs1)NC(=O)C(=O)NCc1ccccc1C(=O)NC1(c2ccc3nn(C)cc3c2)CC1", "note": "[Example 97]", "EC50": "< 1"}
{"smiles": "CC(C)(O)CCc1cc(C2(NC(=O)c3ccccc3CNC(=O)C(=O)NCC#N)CC2)c2ccccc2c1", "note": "[Example 424]", "EC50": "1 to 10"}
{"smiles": "N#CN1CC[C@H]1CNC(=O)C(=O)NCc1ccccc1C(=O)NC1(c2cccc3ccccc23)CC1", "note": "[Example 500]", "EC50": "< 1"}
{"smiles": "C#CCNC(=O)C(=O)NCc1ccccc1C(=O)NC1(c2cc(-c3cnn(C4CC4)c3)ccc2Cl)CC1", "note": "[Example 384]", "EC50": "< 1"}
{"smiles": "Cc1nn(C)cc1-c1cc(F)cc(C2(NC(=O)c3ccccc3CNC(=O)C(=O)NCC#Cc3ncccc3Cl)CC2)c1", "note": "[Example 259]", "EC50": "< 1"}
{"smiles": "Cc1cccnc1C#CCNC(=O)C(=O)NCc1ccccc1C(=O)NC1(c2ccc3nn(C)cc3c2)CC1", "note": "[Example 271]", "EC50": "< 1"}
{"smiles": "C#CCNC(=O)C(=O)NCc1ccccc1C(=O)NC1(c2cc(C#C)cc(C(F)(F)F)c2)CC1", "note": "[Example 69]", "EC50": "< 1"}
{"smiles": "C[C@@H](C#Cc1c(F)cccc1C#N)NC(=O)C(=O)NCc1ccccc1C(=O)NC1(c2ccc3nn(C)cc3c2)CC1", "note": "[Example 100]", "EC50": "< 1"}
{"smiles": "N#CCNC(=O)C(=O)NCc1ccccc1C(=O)NC1(c2cc(Cl)cc(Br)c2)CC1", "note": "[Example 455]", "EC50": "> 10"}
{"smiles": "O=C(NC/C=C/C(=O)n1cccn1)C(=O)NCc1ccccc1C(=O)NC1(c2cccc3ccccc23)CC1", "note": "[Example 567]", "EC50": "1 to 10"}
{"smiles": "O=C(NCC#Cc1nccs1)C(=O)NCc1ccccc1C(=O)NC1(c2ccc3nc(C4CC4)ccc3c2)CC1", "note": "[Example 396]", "EC50": "< 1"}
{"smiles": "O=C(NCC#Cc1cnccn1)C(=O)NCc1ccccc1C(=O)NC1(c2ccc3ccccc3c2)CC1", "note": "[Example 172]", "EC50": "< 1"}
{"smiles": "N#CCNC(=O)C(=O)NCc1ccccc1C(=O)NC1(c2cccc(Br)c2)CC1", "note": "[Example 545]", "EC50": "> 10"}
{"smiles": "O=C(NCC#Cc1nccs1)C(=O)NCc1ccccc1C(=O)NC1(c2cc3ccccc3cn2)CC1", "note": "[Example 394]", "EC50": "< 1"}
{"smiles": "C#CCNC(=O)C(=O)NCc1ccccc1C(=O)NC1(c2cc(F)c(F)c(-c3cnn(C4CC4)c3)c2)CC1", "note": "[Example 242]", "EC50": "< 1"}
